Source: patent US20250034116A1, “1,4-DIHETEROCYCLIC SUBSTITUTED AROMATIC RING OR AROMATIC HETEROCYCLIC COMPOUND AND USE THEREOF” (BeBetter Med Inc., priority 2022, published 2025)

Columns and labels:
[1] = test system: CYP enzymes in human liver microsomes (HLM); assay: Inhibition of 20-HETE production in human liver microsomes (HLM); assay type: biochemical
Experimental: (§1) Experimental principle: The inhibitory activity of 20-HETE production is evaluated by testing the inhibitory effects of the compound on human liver microsomes (HLM), rat liver microsomes (RLM), mouse liver microsomes (MLM), or […] CYP4 subtype enzymes (CYP4F2). This assay employs HLM, RLM, or MLM along with recombinant CYP4F2 (rCYP4F2) and recombinant CYP4A11 (rCYP4A11), which are […] CYP4 subtype enzymes, to detect the effects of the test compound at different concentrations on the metabolic rate of enzyme-specific substrates, to determine the inhibitory effects of the test compound on CYP enzymes in HLM, RLM, or MLM.
(§2) Experimental methods: Dissolve the test compound in DMSO, and subsequently dilute it with an acetonitrile and DMSO mixture (3:1). Add 2 μl of varying concentrations of the test compound and 100 μl of potassium phosphate buffer containing either liver microsomes or recombinant enzymes to a 96-well plate. After mixing well, transfer 30 μl to another well (in duplicate), add 15 μl of 400 μM substrate solution, and mix well again. Preheat at 37° C. for 10 minutes, and then add 15 μl of 6 mM NADPH and incubate at 37° C. for 25 minutes. After 25 minutes, add 160 μl of acetonitrile solution (containing 0.1 μg/ml internal standard) to stop the reaction. Mix well, centrifuge at 3500 g for 15 minutes, and then analyze the supernatant using LC-MS/MS.
(§3) Plot the compound concentration on the x-axis and the inhibition rate on the y-axis to draw the curve. Use GraphPad Prism 5 software to fit the curve and calculate the IC50. The formula is Y=Bottom+(Top−Bottom)/(1+10^((Log IC50−X)×HillSlope)). X represents the logarithmic concentration of the inhibitor, and Y represents the relative enzyme activity at a given inhibitor concentration (relative to the condition without the inhibitor).
(§4) Calculate the inhibition percentages at concentrations of 1000 nM, 500 nM, or 100 nM as well as the half-maximal inhibitory concentration (IC50) of the test compound from the above experiment.

[2] = test system: CYP enzymes in mouse liver microsomes (MLM); assay: Inhibition of 20-HETE production in mouse liver microsomes (MLM); assay type: biochemical
Experimental: as §1, §2, §3, §4

[3] = test system: CYP enzymes in rat liver microsomes (RLM); assay: Inhibition of 20-HETE production in rat liver microsomes (RLM); assay type: biochemical
Experimental: as §1, §2, §3, §4

[4] = Pharmacokinetic (PK) experiment, oral administration in rats; assay type: in vivo, Male SD rats; details: 20 mg/kg; for AUC(0-inf) / Cmax / Tmax / half-life / AUC(0-t): male, SD, rat, plasma; for AUC(0-t): read-out: AUC0-24
Experimental: Male SD rats, weighing 180-250 grams, were fasted overnight before testing. The test compound was dissolved in 30% sulfobutylether-β-cyclodextrin and administered orally at a dose of 20 mg/kg. Blood was collected from the tail vein at 15 minutes, 30 minutes, and 1, 2, 4, 6, 8, and 24 hours after administration. Approximately 0.3 ml of blood was collected at each time point, placed in a centrifuge tube containing K2-EDTA, and centrifuged (2000 g for 10 minutes at 4° C.) to take the plasma, which was then stored in an ultra-low temperature freezer at −70° C. or below. A 50 μL plasma sample was mixed with 135 μL of acetonitrile (containing 0.5 μg/mL internal standard) and vortexed for protein precipitation. After centrifugation, the supernatant was taken for LC-MS/MS analysis.

Row | Compound | HLM (% inh @ 100 nM) [1] [%] | IC50 [1] [nM] | HLM (% inh @ 500 nM) [1] [%] | RLM (% inh @ 500 nM) [3] [%] | other results
1 | O=C(C1CCCCC1O)N1CCC(c2ccc(-c3cn[nH]c3)cc2F)CC1 (single isomer, unassigned) [Compound 149b, (4-(2-fluoro-4-(1H-pyrazol-4-yl)phenyl)piperidin-1-yl)(2-hydroxycyclohexyl) methanone] | 83.42 |  |  |  | MLM (% inh @ 1000 nM) [2]: 47.54%
2 | O=C1CCCCCN1CC1CCN(c2ccc(-c3cn[nH]c3)cc2F)CC1 [Compound 161, 1-((1-(2-fluoro-4-(1H-pyrazol-4-yl)phenyl)piperidin-4-yl)methyl) azepan-2-one] | 86.45 |  |  |  | MLM (% inh @ 1000 nM) [2]: 59.36%
3 | O=C(N1CCN(c2ccc(-c3cn[nH]c3)cc2F)CC1)C1(O)CCCCC1 [Compound 132, (4-(2-fluoro-4-(1H-pyrazol-4-yl)phenyl)piperazin-1-yl)(1-hydroxycyclohexyl) methanone] |  | 25.6 |  |  | IC50 [2]: 2420 nM
4 | O=C(N1CCCC1)N1CCC(c2ccc(-c3cn[nH]c3)c(F)c2F)CC1 [Compound 71, (4-(2,3-difluoro-4-(1H-pyrazol-4-yl)phenyl)piperidin-1-yl)(pyrrolidin-1-yl) methanone] |  | 19.7 | 95.89 | 75.13 | absorption and blood exposure after oral administration (in words) [4]: well absorbed and exhibit high blood exposure; AUC(0-inf) [4]: 58000 ng·h/mL; Cmax [4]: 8730 ng/mL; Tmax [4]: 2 h; half-life [4]: 2.41 h; AUC(0-t) [4]: 57900 ng·h/mL
5 | COC1(C(=O)N2CCC(c3ccc(-c4cn[nH]c4)cc3)CC2)CCCCC1 [Compound 150, (4-(4-(1H-pyrazol-4-yl)phenyl)piperidin-1-yl)(1-methoxycyclohexyl) methanone] | 84.56 |  |  |  | MLM (% inh @ 1000 nM) [2]: 40.18%
6 | O=C(C1CCC(O)C1)N1CCC(c2ccc(-c3cn[nH]c3)cc2F)CC1 (single isomer, unassigned) [Compound 145b, (4-(2-fluoro-4-(1H-pyrazol-4-yl)phenyl)piperidin-1-yl)(3-hydroxycyclopentyl) methanone] | 88.49 |  |  |  | MLM (% inh @ 1000 nM) [2]: 48.10%
7 | O=C(C1CCC(O)C1)N1CCC(c2ccc(-c3cn[nH]c3)cc2F)CC1 (single isomer, unassigned) [Compound 145a, (4-(2-fluoro-4-(1H-pyrazol-4-yl)phenyl)piperidin-1-yl)(3-hydroxycyclopentyl) methanone] | 86.67 |  |  |  | MLM (% inh @ 1000 nM) [2]: 60.45%
8 | O=C(N1CCC(c2ccc(-c3cn[nH]c3)cc2F)CC1)C1(O)CCCCC1 [Compound 140, (4-(2-fluoro-4-(1H-pyrazol-4-yl)phenyl)piperidin-1-yl)(1-hydroxycyclohexyl) methanone] |  | 17.6 |  |  | IC50 [2]: 1520 nM
9 | O=C(CCCCCc1ccccc1)NCC1CCN(c2ccc(-c3cn[nH]c3)cc2)CC1 [Compound 113, N-((1-(4-(1H-pyrazol-4-yl)phenyl)piperidin-4-yl)methyl)-6-phenylhexanamide] |  | 20.6 | 87.72 | 57.83 | IC50 [3]: 15.5 nM; absorption and blood exposure after oral administration (in words) [4]: well absorbed and exhibit high blood exposure; AUC(0-inf) [4]: 10100 ng·h/mL; Cmax [4]: 2420 ng/mL; Tmax [4]: 1.33 h; half-life [4]: 2.93 h; AUC(0-t) [4]: 10100 ng·h/mL
10 | CC(C)(O)CNC(=O)N1CCC(c2ccc(-c3cn[nH]c3)cc2F)CC1 [Compound 152, 4-(2-fluoro-4-(1H-pyrazol-4-yl)phenyl)-N-(2-hydroxy-2-methylpropyl)piperidine-1-carboxamide] | 88.49 |  |  |  | MLM (% inh @ 1000 nM) [2]: 48.10%
11 | O=C(C1CCCC1)N1CCC(c2ccc(-c3cn[nH]c3)c(F)c2F)CC1 [Compound 98, cyclopentyl(4-(2,3-difluoro-4-(1H-pyrazol-4-yl)phenyl)piperidin-1-yl) methanone] |  | 22 | 96.23 |  | IC50 [3]: 9.68 nM; absorption and blood exposure after oral administration (in words) [4]: well absorbed and exhibit high blood exposure; AUC(0-inf) [4]: 98600 ng·h/mL; Cmax [4]: 8700 ng/mL; Tmax [4]: 3 h; half-life [4]: 2.38 h; AUC(0-t) [4]: 98400 ng·h/mL
12 | O=C(C1CCN(c2ccc(-c3cn[nH]c3)cc2)CC1)N1CC2CCC1C2 (stereo not drawn) [Compound 65, (1-(4-(1H-pyrazol-4-yl)phenyl)piperidin-4-yl)(2-azabicyclo[2.2.1]heptane-2-yl) methanone] |  |  | 52.63 | 2.30 | 
13 | O=C(C1CCN(c2ccc(-c3cn[nH]c3)cc2)CC1)N1CCCCC1 [Compound 54, (1-(4-(1H-pyrazol-4-yl)phenyl)piperidin-4-yl)(piperidin-1-yl) methanone] |  |  | 81.26 | 32.02 | IC50 [3]: 995 nM
14 | O=C1CCCN1CC1CCN(c2ccc(-c3cn[nH]c3)nc2)CC1 [Compound 22, 1-((1-(6-(1H-pyrazol-4-yl)pyridin-3-yl)piperidin-4-yl)methyl)pyrrolidin-2-one] |  |  | 53.10 | 34.61 | 
15 | O=C1C2CCC(C2)N1CC1CCN(c2ccc(-c3cn[nH]c3)cc2)CC1 (stereo not drawn) [Compound 33, 2-((1-(4-(1H-pyrazol-4-yl)phenyl)piperidin-4-yl)methyl)-2-azabicyclo[2.2.1]heptan-3-one] |  |  | 61.47 | 8.80 | 
16 | O=C(NCC1CCN(c2ccc(-c3cn[nH]c3)cc2)CC1)C1CCCC1 [Compound 46, N-((1-(4-(1H-pyrazol-4-yl)phenyl)piperidin-4-yl)methyl)cyclopentanecarboxamide] |  | 43.2 |  | 35.54 | IC50 [3]: 942 nM
17 | C[C@H]1CN(C(=O)N2CCCC2)CCN1c1ccc(-c2cn[nH]c2)c(F)c1F [Compound 102, (S)-(4-(2,3-difluoro-4-(1H-pyrazol-4-yl)phenyl)-3-methylpiperazin-1-yl)(pyrrolidin-1-yl) methanone] |  |  | 84.23 | 76.10 | 
18 | Cc1cc(-c2cn[nH]c2)ccc1N1CCC(CN2CCCC2=O)CC1 [Compound 12, 1-((1-(2-methyl-4-(1H-pyrazol-4-yl)phenyl)piperidin-4-yl)methyl)pyrrolidin-2-one] |  |  | 76.91 | 17.99 | 
19 | O=C(C1CCCC1)N1CCC(c2c(F)cc(-c3cn[nH]c3)cc2F)CC1 [Compound 99, cyclopentyl(4-(2,6-difluoro-4-(1H-pyrazol-4-yl)phenyl)piperidin-1-yl) methanone] |  |  | 96.13 | 74.05 | 
20 | N#Cc1cc(-c2cn[nH]c2)ccc1N1CCC(CN2CCCC2=O)CC1 [Compound 13, 2-(4-((2-oxopyrrolidin-1-yl)methyl)piperidin-1-yl)-5-(1H-pyrazol-4-yl)benzonitrile] |  |  | 58.98 | −4.72 | 
21 | O=C(C1CCN(c2ccc(-c3cn[nH]c3)cc2F)CC1)N1CC2CCCC2C1 (stereo not drawn) [Compound 153, (1-(2-fluoro-4-(1H-pyrazol-4-yl)phenyl)piperidin-4-yl)(hexahydrocyclopenta[c]pyrrol-2 (1H)-yl) methanone] | 74.69 | 32.4 |  |  | IC50 [3]: 361 nM; absorption and blood exposure after oral administration (in words) [4]: well absorbed and exhibit high blood exposure; AUC(0-inf) [4]: 566000 ng·h/mL; Cmax [4]: 75200 ng/mL; Tmax [4]: 2 h; half-life [4]: 3.26 h; AUC(0-t) [4]: 558000 ng·h/mL
22 | Clc1ccc(CC2CCN(c3ccc(-c4cn[nH]c4)cc3)CC2)cc1 [Compound 41, 1-(4-(1H-pyrazol-4-yl)phenyl)-4-(4-chlorobenzyl)piperidine] |  |  | 57.77 | 15.76 | 
23 | O=C(C1CCCCC1)N1CCC(c2ccc(-c3cn[nH]c3)c(F)c2F)CC1 [Compound 97, cyclohexyl(4-(2,3-difluoro-4-(1H-pyrazol-4-yl)phenyl)piperidin-1-yl) methanone] |  | 25.6 | 95.80 |  | IC50 [3]: 25.4 nM
